The EC50 is the midpoint of the concentration-response curve. A lower EC50 goes with greater potency.

Consider 13 compounds from US20240174641A1, “HETEROCYCLIC COMPOUNDS CAPABLE OF […]” (Boehringer Ingelheim International GmbH, priority 2022, published 2024).

One experiment deals with dog STING (dSTING). Kind of experiment: Dog differential scanning fluorimetry (DSF) assay, thermal shift of dog STING protein. Type of experiment: binding. The conditions noted are these: DSF (dDSF); 100 μM compound, 3 μM dog STING protein; Tm with ligand minus Tm of protein alone. The source says:
The protein used for the biophysical experiments was a recombinant dog STING protein comprising its cytosolic cGAMP binding ectodomain. A codon optimized DNA sequence (for expression in Escherichia coli) encoding amino acid residues 149 to 375 of dog STING was synthesized by GeneArt (Regensburg, Germany) and inserted into a pET17b E. coli expression vector. The protein construct encodes an N-terminal 8×His-tag followed by tobacco etch virus protease (TEV) cleavage site and the above STING gene sequence. The resulting protein sequence for the used dog STING protein (SEQ ID No. 1) is listed below:
For expression of the above recombinant dog STING, the construct was transformed into E. coli BL21 DE3 strain and grown in shake flasks in LB-medium at 15° C. Expression was induced by addition of isopropyl β-D-1-thiogalactopyranoside to a final concentration of 1 mM and cultures shaken overnight. Cell pellets were centrifuged and stored at −70° C. until further use. Protein was purified by cell thawing in lysis buffer (20 mM TRIS-HCl, pH 8, 500 mM NaCl, 1 mM DTT, 0.5 mg/ml lysozyme, Complete Protease Inhibitor (Roche) and DNase (Roche)), followed by metal affinity purification using Ni-NTA resins and elution buffer consisting of 20 mM TRIS-HCl, pH 8, 500 mM NaCl, 1 mM DTT, 300 mM imidazole. Cleavage of the His-Tag using TEV-protease took place during dialysis in size exclusion buffer (20 mM TRIS-HCl, pH 8, 100 mM NaCl, 1 mM DTT) over night. To further purify the target protein a reverse Nickel affinity column was used and the flow through was applied to a size exclusion chromatography. The peak fraction was collected and concentrated to 5 mg/mL.
Dye fluorescence is quenched in aqueous environment and increases upon association of the dye with the hydrophobic parts of the unfolding protein. […] The inflection point of the curve represents the “melting” temperature of the protein (Tm) which is calculated numerically using the Boltzmann equation.
The thermal stability of the dog STING protein was measured in assay buffer containing 20 mM Tris, 150 mM NaCl at pH7.5. The assay uses 384-Well qPCR Plates (Catalog #781358, BRAND), Microseal® ‘B’ Adhesive Seals for PCR Plates (Catalog #MSB-1001, BIO-RAD) and was run on a CFX384 Real-Time System (Bio-Rad). A DMSO stock solution of SYPRO orange (SIGMA 55692-500UL) was prepared. Compound stock solutions (10 mM in DMSO) were diluted 1:2 in DMSO to an intermediate compound concentration of 5 mM and then further diluted 1:40 in assay buffer resulting in a compound concentration of 125 μM and 2.5% DMSO. Fluorescent dye stock solution (5000×SYPRO Orange) was then mixed with target protein and buffer to a concentration of 15 μM Protein and 25×SYPRO Orange. 2 μl of this protein-dye-mixture was added to 8 μl compound solution. Final volume was 10 μL. 3-6 well positions were used as negative control (protein with 2% DMSO). The plates were prepared for duplicate measurement and centrifuged for 2 min at 1000 g. In the measurement, 160 cycles of 0.5° C. were used (temperature ramp 15 s/cycle, 15° C. to 95° C.).
Final Assay concentrations for compound characterization were 100 μM compound, 3 μM target protein, 5×SYPRO Orange, and 2% DMSO in 10 μl. All dispensing steps were performed using a HamiltonStar pipetting robot (Hamilton).
Dissociation curves were processed in Bio-Rad CFX Manager. Peak type was set to “negative”. Compound codes for screen were assigned in the plate layout.
Two replicates of TM measurements were averaged, and the standard deviation was calculated. In cases of SD>1.5° C. the measurement was repeated.
The melting point (Tm) obtained for STING protein alone was subtracted from T obtained for protein incubated with ligand to generate ΔTm values.
A general note: In DSF a fluorescence change marks the thermal transition of the protein.

Another experiment has as its target STING (Canis lupus familiaris, UniProt A0A8I3MH52). Kind of experiment: Dog whole blood (dWB) assay, IFNb secretion by ELISA. The conditions noted are these: canine Interferon-beta (IFNb) ELISA, 4 h incubation at 37° C. It counts as cell-based. The method, then: For the detection of STING activation in physiological environment dog whole blood (dWB) was stimulated by the cyclic dinucleotide cGAMP or a test compound. Pathway activity was monitored by measuring the IFNb production.
Compounds were delivered as 10 mM DMSO solution, diluted and transferred by using an Echo acoustic dispenser to the 384 well assay plate (Greiner #781182), pre-filled with 10 μl 1×HBSS in each well (10×HBSS (+Ca/+Mg), #14065-049, Gibco). Typically, 8 concentrations were used with the highest concentration at 10 μM in the final assay volume followed by approximately 1:4 dilution steps. DMSO concentration was set to 0.1% in the final assay volume. The 384-well assay plate contained 20 test compounds and DMSO in control and cGAMP standard wells. The dog whole blood was collected as Na-Citrate blood (e.g., 3.8% in Monovettes from Sarstedt) and kept at 4° C. overnight until use in the assay. 80 μl of the whole blood samples were transferred to each well of the 384-well assay plates filled with compound/1×HBSS. Blood plates were kept at room temperature for 60 minutes and continuous shaking with 450 rpm, covered with the lid, but not sealed. A 10×cGAMP assay solution was diluted from a 2 mM stock solution in 1×HBSS immediately before use at room temperature. 10 μl of the 10×cGAMP/HBSS were added to the high control wells, whereas HBSS only was added to all compound and low control wells. After covering assay plates with the lid, blood plates were kept for a 4 h incubation at 37° C. in the incubator, without shaking. For the detection of IFNb in dog plasma the ELISA Kit for Canine Interferon Beta (Biotrend #SEA222Ca) was used. Whole blood assay plates were centrifuged at 1000 g for 10 minutes at 8° C. […] was transferred with a 96 well pipetting robotics from the 384 well whole blood plate to the corresponding 96 well ELISA plate, pre-filled with 60 μl assay diluent in each well. Plates were sealed with microplate seals and kept at 4° C. overnight again. ELISA plates were brought to room temperature, followed by a 1 h incubation at 37° C. in the incubator. Detection Reagent A working solution was prepared by diluting Detection Reagent A 1:100 in Assay Reagent A. Liquid was then removed from the 96 well ELISA plate to add 100 μL Detection Reagent A working solution to each well. ELISA plates were covered with the plate sealer and incubated for 1 hour at 37° C. in the incubator. The 1× Wash buffer was prepared by diluting the 30× Wash Buffer Concentrate in H2O. Detection Reagent B working solution was prepared by diluting Detection Reagent B 1:100 in Assay Reagent B. The ELISA plates were washed three times with 350 μl wash buffer and afterwards inverted and blotted against absorbent paper to remove any liquid. 100 μL of Detection Reagent B working solution was added to each well of the ELISA plates, which are then covered with the plate sealer and incubated for 30 minutes at 37° C. in the incubator. After incubation the ELISA assay plates were washed five times with 350 μl wash buffer and were again inverted and blotted against absorbent paper to remove any remaining liquid. 90 μL of TMB Substrate was added to each well of the ELISA plates, which were then covered with the plate sealer and incubated for 15 minutes at 37° C. in the incubator. The reaction was stopped by adding 50 μL stop solution and absorbance was measured at 450 nm immediately.
For data evaluation and calculation, % control calculation of each well was based on the mean of high (cGAMP stimulated control) and mean of low (unstimulated control) controls by using the following standard 4 parameter logistic regression formula:
[y=(a−d)/(1+(x/c)^b)+d] • a=low value, • d=high value, • x=conc M, • c=EC50 M, • b=slope. Dog Liver Microsome (dLM) Assay
In general terms: ELISA stands for enzyme-linked immunosorbent assay.

Sequence of STING (A0A8I3MH52 1-374): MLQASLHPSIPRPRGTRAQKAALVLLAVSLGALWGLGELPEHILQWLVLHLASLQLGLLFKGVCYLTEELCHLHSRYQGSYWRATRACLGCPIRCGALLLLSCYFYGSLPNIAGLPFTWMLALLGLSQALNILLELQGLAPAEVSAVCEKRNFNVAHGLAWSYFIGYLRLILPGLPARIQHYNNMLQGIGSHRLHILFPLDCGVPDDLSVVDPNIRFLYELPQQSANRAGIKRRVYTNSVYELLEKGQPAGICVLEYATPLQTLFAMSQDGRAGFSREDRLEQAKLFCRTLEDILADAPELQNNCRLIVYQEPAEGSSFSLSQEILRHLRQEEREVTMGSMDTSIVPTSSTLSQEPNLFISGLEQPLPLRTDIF

On to `Cc1cc(F)cc2c(-c3c(F)ccc4nn(C)cc34)nn(-c3ccc(N4CCC(C(=O)O)CC4)nc3)c12` [Example 62, 1-(5-{5,5″-difluoro-2″,7-dimethyl-1H,2″H-[3,4″-biindazol]-1-yl}pyridin-2-yl)piperidine-4-carboxylic acid], for which the “Delta TM” value with dog STING (dSTING) was found to be 38.0 °C. At STING, this compound gave an EC50 of 295 nM.

With `Cc1c(F)ccc2c(-c3cccc4nn(C)c(F)c34)nn(-c3ccc(N4C[C@@H]5[C@H](C4)[C@H]5C(=O)O)nc3)c12` [Example 11, (1R,5S,6R)-3-(5-{3″,6-Difluoro-2″,7-dimethyl-1H,2″H-[3,4″-biindazol]-1-yl}pyridin-2-yl)-3-azabicyclo[3.1.0]hexane-6-carboxylic acid], the “Delta TM” value in the experiment with dog STING (dSTING) stood at 34.8 °C. This compound also showed an EC50 at STING of 458 nM.

`Cc1cccc2c(-c3c(F)cc(F)c4nn(C)cc34)nn(-c3ccc(N4CC[C@@H](CC(=O)O)C4)nc3)c12` [Example 45, 2-[(3S)-1-(5-{5″,7″-difluoro-2″,7-dimethyl-1H,2″H-[3,4″-biindazol]-1-yl}pyridin-2-yl)pyrrolidin-3-yl]acetic acid]: in the experiment on dog STING (dSTING), the “Delta TM” value worked out at 33.0 °C. Moreover, the EC50 at STING was 601 nM.

As for `Cc1cccc2c(-c3ccc(F)c4nn(C)c(F)c34)nn(-c3ccc(N4CC[C@@H](CC(=O)O)C4)nc3)c12` [Example 54, 2-[(3S)-1-(5-{3″,7″-difluoro-2″,7-dimethyl-1H,2″H-[3,4″-biindazol]-1-yl}pyridin-2-yl)pyrrolidin-3-yl]acetic acid], the “Delta TM” value in the experiment with dog STING (dSTING) turned out to be 30.0 °C. A half-maximal effect at STING (EC50) was put at 261 nM.

As to `Cc1cccc2c(-c3c(F)ccc4nn(C)cc34)nn(-c3ccc(N4C[C@@H]5[C@H](C4)[C@H]5C(=O)O)nc3)c12` [Example 5, (1R,5S,6S)-3-(5-{5″-Fluoro-2″,7-dimethyl-1H,2″H-[3,4″-biindazol]-1-yl}pyridin-2-yl)-3-azabicyclo[3.1.0]hexane-6-carboxylic acid], the “Delta TM” value with dog STING (dSTING) came to 36.5 °C. For the same compound, on STING, the concentration giving a half-maximal response (EC50) is 282 nM.

Regarding `Cc1cc(F)cc2c(-c3c(F)ccc4nn(C)cc34)nn(-c3ccc(N4C[C@@H]5[C@H](C4)[C@H]5C(=O)O)nc3)c12` [Example 14, (1R,5S,6R)-3-(5-{5,5″-Difluoro-2″,7-dimethyl-1H,2″H-[3,4″-biindazol]-1-yl}pyridin-2-yl)-3-azabicyclo[3.1.0]hexane-6-carboxylic acid], the “Delta TM” value in the experiment on dog STING (dSTING) was determined as 38.0 °C. Also, at STING, the EC50 turned out to be 391 nM.

For `Cc1c(F)ccc2c(-c3c(F)ccc4nn(C)cc34)nn(-c3ccc(N4C[C@@H]5[C@H](C4)[C@H]5C(=O)O)nc3)c12` [Example 64, (1R,5S,6R)-3-(5-{5″,6-difluoro-2″,7-dimethyl-1H,2″H-[3,4″-biindazol]-1-yl}pyridin-2-yl)-3-azabicyclo[3.1.0]hexane-6-carboxylic acid], in the experiment with dog STING (dSTING), the “Delta TM” value worked out at 36.5 °C. For the same compound, the EC50 at STING stood at 666 nM.

As to `Cc1cccc2c(-c3c(F)ccc4nn(C)cc34)nn(-c3ccc(N4CC5CCC4CC5C(=O)O)nc3)c12` (single isomer, unassigned) [Example 28-4], the “Delta TM” value with dog STING (dSTING) is 37.9 °C. The same compound gave an EC50 at STING of 206 nM.

In the case of `Cc1cccc2c(-c3cccc4nn(C)c(F)c34)nn(-c3ccc(N4CCN(C=O)CC4)nc3)c12` [Example 9, 4-(5-{3″-Fluoro-2″,7-dimethyl-1H,2″H-[3,4″-biindazol]-1-yl}pyridin-2-yl)piperazine-1-carbaldehyde], in the experiment on dog STING (dSTING), the “Delta TM” value stood at 28.5 °C. In addition, at STING, a half-maximal response (EC50) required 192 nM.

Take `CC(=O)N1C[C@H]2C[C@@H]1CN2c1ccc(-n2nc(-c3cccc4nn(C)c(F)c34)c3cccc(C)c32)cn1` [Example 22, 1-[(1R,4R)-5-(5-{3″-fluoro-2″,7-dimethyl-1H,2″H-[3,4″-biindazol]-1-yl}pyridin-2-yl)-2,5-diazabicyclo[2.2.1]heptan-- 2-yl]ethan1-one]: in the experiment with dog STING (dSTING), the “Delta TM” value was 30.4 °C. The compound further gave an EC50 at STING of 244 nM.

Regarding `Cc1c(F)ccc2c(-c3cccc4nn(C)c(F)c34)nn(-c3ccc(N4CCC(C(=O)O)CC4)nc3)c12` [Example 60, 1-(5-{3″,6-difluoro-2″,7-dimethyl-1H,2″H-[3,4″-biindazol]-1-yl}pyridin-2-yl)piperidine-4-carboxylic acid], the “Delta TM” value in the experiment with dog STING (dSTING) is 34.5 °C. The compound also displayed an EC50 on STING of 195 nM.

For `Cc1cccc2c(-c3c(F)ccc4nn(C)cc34)nn(-c3ccc(N4C[C@@H]5C[C@H]4C[C@H]5C(=O)O)nc3)c12` [Example 27-1, (1S,4R,5R)-2-(5-{5″-fluoro-2″,7-dimethyl-1H,2″H-[3,4″-biindazol]-1-yl}pyridin-2-yl)-2-azabicyclo[2.2.1]heptane-5-carboxylic acid], the “Delta TM” value in the experiment on dog STING (dSTING) stood at 36.9 °C. The same compound came in with a 50% effective concentration (EC50) at STING of 211 nM.

Turning to `Cc1cccc2c(-c3cccc4nn(C)c(F)c34)nn(-c3ccc(N4CC[C@H](CC(=O)O)C4)nc3)c12` [Example 17, 2-[(3R)-1-(5-{3″-fluoro-2″,7-dimethyl-1H,2″H-[3,4″-biindazol]-1-yl}pyridin-2-yl)pyrrolidin-3-yl]acetic acid], the “Delta TM” value in the experiment on dog STING (dSTING) came out at 35.8 °C. This compound showed an EC50 at STING of 185 nM.
